Like-named read-outs stand apart in the source and are kept apart here.
Assays:
[1] = Brain pharmacokinetic (PK) study in mice; type: in vivo; conditions: for Kp at 1 h / Kp at 2 h / Kp at 4 h / concentration at 1 h / concentration at 2 h / concentration at 4 h / concentration at 0.5 h / Kp at 0.5 h: mouse; for Kp at 1 h / Kp at 2 h / Kp at 4 h / Kp at 0.5 h: brain / plasma, ARRY-380 75 mg/kg, read-out: brain:plasma ratio
Description: The mice were separated into groups and their PK was studied at 4 time points (0.5, 1, 2 and 4 hours, 4 mice per group per timepoint). The animals were euthanized by CO2 inhalation at the time points. Whole blood was drawn (300 μL) by cardiac puncture and […] eppendorf tube containing ethylenediaminetetraacetic acid (“EDTA”) ([…]). The samples were centrifuged, and the plasma was decanted and frozen at -20° C. until delivered to analytical chemistry. The brains were collected. The animals were perfused with 5-10 mL of saline, and the brains were removed, weighed and placed into a fast prep tube for DMPK analysis.

[2] = test system: NCI-N87 gastric carcinoma cells; assay: Inhibition of NCI-N87 gastric carcinoma xenograft growth in mice implanted intracranially; type: in vivo; conditions: 75 mg/kg PO BID; intracranial NCI-N87, nude BALB/c mice; FIG. 3
Description: Anesthetized nude BALB/c female mice (Taconic Laboritories Inc., Germantown, N.Y.) were inoculated with human tumor cells (NCI-N87 gastric carcinoma cells, NCI, Bethesda, Md.) intracranially at lamba suture. 5×10^5 cells in saline were implanted via intracranial injection. The mice were separated into three groups (N=12); vehicle (acidified 30% Captisol®, pH about 4.5), 50 mg/kg lapatanib PO BID (30% Captisol®), and 75 mg/kg N4-(4-([1,2,4]triazolo[1,5-a]pyridin-7-yloxy)-3-methylphenyl)-N6-(4,4-dimethyl-4,5-dihydrooxazol-2-yl)quinazoline-4,6-diamine PO BID (acidified 30% Captisol®, pH about 4.5). Dosing began two days after implantation. The dose may have been reduced as necessary if drug-related weight loss (approximately 5%) was observed. The mice were monitored twice daily for general health and behavioral/neurological effects, and body weights (BW) were determined twice weekly. At first sign of neurological problem or body weight loss of greater than 20%, the mice were euthanized by CO2 inhalation. Brain and plasma were collected for analyses.

[3] = test system: NCI-N87 gastric carcinoma cells; assay: Anti-tumor efficacy on N87 human gastric cancer in murine xenograft model (subcutaneous); type: in vivo, mice; conditions: subcutaneous NCI-N87, N=8
Description: Nude nu/nu female mice (NCI, Bethesda, Md.) were split into five groups (N=8). Tumor cells (NCI-N87 gastric carcinoma cells, NCI, Bethesda, Md. 1×10^7) were implanted into the mice via subcutaneous injection (100 μL) directly on the right flank. To ensure good tumor take, the cells should be greater than 90% viable (thus, the intitial cell suspension of 1×10^7 cells/mL were injected for 1×10^6 cells injected/100 The tumors were allowed to grow to 150±50 mm^3. The tumor size was measured, and the mice were weighed. The mice were administered vehicle (30% Captisol®, 150 g in 500 mL DI water, PO, BID), lapatanib (50 mg/kg, PO, BID, 30% Captisol®), lapatanib (100 mg/kg, PO, BID, 30% Captisol®), N4-(4-([1,2,4]triazolo[1,5-a]pyridin-7-yloxy)-3-methylphenyl)-N6-(4,4-dimethyl-4,5-dihydrooxazol-2-yl)quinazoline-4,6-diamine (50 mg/kg, PO, QD, 30% Captisol) and N4-(4-([1,2,4]triazolo[1,5-a]pyridin-7-yloxy)-3-methylphenyl)-N6-(4,4-dimethyl-4,5-dihydrooxazol-2-yl)quinazoline-4,6-diamine (100 mg/kg, PO, QD, 30% Captisol). The tumor volume was measured. The number of partial responses in the mice was as follows: lapatanib (50 mg/kg) 0, lapatanib (100 mg/kg) 1, ARRY-380 (50 mg/kg) 1, ARRY-380 (100 mg/kg) 4.

[4] = Dissolution testing at pH 6.5 in phosphate buffer; type: physicochemical; conditions: pH 6.5 phosphate buffer, 37° C., about 240 minutes
Description: Dissolution testing was performed at a pH of 6.5 in phosphate buffer. […] The solid dispersion was suspended in H2O and added directly to the buffer solution at 37° C. […]

[5] = Physicochemical analysis: hygroscopicity
[6] = female, nude BALB/c, 1 hour, single PO dose, lapatanib 50 mg/kg
[7] = female, nude BALB/c, 2 hour, single PO dose, lapatanib 50 mg/kg
[8] = female, nude BALB/c, 4 hour, single PO dose, lapatanib 50 mg/kg
[9] = female, nude BALB/c, 1 hour, single PO dose, lapatanib 50 mg/kg, ARRY-380 75 mg/kg (AR00440993 = metabolite), perfused brain, read-out: Average Brain Concentration
[10] = female, nude BALB/c, 2 hour, single PO dose, lapatanib 50 mg/kg, ARRY-380 75 mg/kg (AR00440993 = metabolite), perfused brain, read-out: Average Brain Concentration
[11] = female, nude BALB/c, 4 hour, single PO dose, lapatanib 50 mg/kg, ARRY-380 75 mg/kg (AR00440993 = metabolite), perfused brain, read-out: Average Brain Concentration
[12] = 0.5 hour, single PO dose, lapatanib 50 mg/kg, ARRY-380 75 mg/kg (AR00440993 = metabolite of ARRY-380), nude female BALB/c mice
[13] = 1 hour, single PO dose, lapatanib 50 mg/kg, ARRY-380 75 mg/kg (AR00440993 = metabolite of ARRY-380), nude female BALB/c mice
[14] = 2 hour, single PO dose, lapatanib 50 mg/kg, ARRY-380 75 mg/kg (AR00440993 = metabolite of ARRY-380), nude female BALB/c mice
[15] = 4 hour, single PO dose, lapatanib 50 mg/kg, ARRY-380 75 mg/kg (AR00440993 = metabolite of ARRY-380), nude female BALB/c mice
[16] = female, nude BALB/c, 0.5 hour, single PO dose, lapatanib 50 mg/kg
[17] = female, nude BALB/c, 0.5 hour, single PO dose, lapatanib 50 mg/kg, ARRY-380 75 mg/kg (AR00440993 = metabolite), perfused brain, read-out: Average Brain Concentration
[18] = 50 mg/kg PO (lapatanib BID, ARRY-380 QD)
[19] = 100 mg/kg PO (lapatanib BID, ARRY-380 QD)

Row | Kp at 1 h [1, 6] | Kp at 2 h [1, 7] | Kp at 4 h [1, 8] | concentration at 1 h [1, 9] | concentration at 2 h [1, 10] | concentration at 4 h [1, 11] | Average Plasma Concentration [1, 12] | Average Plasma Concentration [1, 13] | Average Plasma Concentration [1, 14] | Average Plasma Concentration [1, 15] | Kp at 0.5 h [1, 16] | concentration at 0.5 h [1, 17] | Compound | number of partial responses in the mice [3, 18] | number of partial responses in the mice [3, 19] | other results
1 | 2.08 | 0.48 | 1.31 | 28.9 ng/g | 35.8 ng/g | 40 ng/g |  |  |  |  |  |  | Cc1cc(Nc2ncnc3ccc(NC4=NC(C)(CO)CO4)cc23)ccc1Oc1ccn2ncnc2c1 (centres unmarked) [AR00440993, (2-((4-((4-([1,2,4]triazolo[1,5-a]pyridin-7-yloxy)-3-methylphenyl)amino)quinazolin-6-yl)amino)-4-methyl-4,5-dihydrooxazol-4-yl)methanol] |  |  | Average Brain Concentration ([1]; 0.5 hour, single PO dose, lapatanib 50 mg/kg, ARRY-380 75 mg/kg (AR00440993 = metabolite), perfused brain): BLQ; brain penetration ([1]; compared with lapatanib or ARRY-380, mice, after PO ARRY-380): significantly higher; concentration at 0.5 h ([1]; plasma, 0.5 hour, single PO dose, lapatanib 50 mg/kg, ARRY-380 75 mg/kg (AR00440993 = metabolite of ARRY-380), nude female BALB/c mice, read-out: Average Plasma Concentration): 20.2 µg/mL; concentration at 1 h ([1]; plasma, 1 hour, single PO dose, lapatanib 50 mg/kg, ARRY-380 75 mg/kg (AR00440993 = metabolite of ARRY-380), nude female BALB/c mice, read-out: Average Plasma Concentration): 67.3 µg/mL; concentration at 2 h ([1]; plasma, 2 hour, single PO dose, lapatanib 50 mg/kg, ARRY-380 75 mg/kg (AR00440993 = metabolite of ARRY-380), nude female BALB/c mice, read-out: Average Plasma Concentration): 134 µg/mL; concentration at 4 h ([1]; plasma, 4 hour, single PO dose, lapatanib 50 mg/kg, ARRY-380 75 mg/kg (AR00440993 = metabolite of ARRY-380), nude female BALB/c mice, read-out: Average Plasma Concentration): 70.4 µg/mL
2 | 0.048 | 0.021 | 0.019 | 116 ng/g | 134 ng/g | 42.1 ng/g | 3350 ng/mL | 6420 ng/mL | 6010 ng/mL | 2640 ng/mL | 0.048 | 122 ng/g | Cc1cc(Nc2ncnc3ccc(NC4=NC(C)(C)CO4)cc23)ccc1Oc1ccn2ncnc2c1 [ARRY-380, N4-(4-([1,2,4]Triazolo[1,5-a]pyridin-7-yloxy)-3-methylphenyl)-N6-(4,4-dimethyl-4,5-dihydrooxazol-2-yl)quinazoline-4,6-diamine] | 1 | 4 | phospho-ErbB2/total ErbB2 in the brain [2]: significantly decreases
3 |  |  |  |  |  |  |  |  |  |  |  |  | CCO.Cc1cc(Nc2ncnc3ccc(NC4=NC(C)(C)CO4)cc23)ccc1Oc1ccn2ncnc2c1.Cc1cc(Nc2ncnc3ccc(NC4=NC(C)(C)CO4)cc23)ccc1Oc1ccn2ncnc2c1 [Example 21, N4-(4-([1,2,4]triazolo[1,5-a]pyridin-7-yloxy)-3-methylphenyl)-N6-(4,4-dimethyl-4,5-dihydrooxazol-2-yl)quinazoline-4,6-diamine freebase hemi-ethanolate] |  |  | AUC for the free drug species [4]: 5490 ng·h/mL; Cmax for the free drug species [4]: 0.44 µg/mL
4 | 0.022 | 0.039 | 0.038 | 90.8 ng/g | 57.4 ng/g | 65.4 ng/g | 1910 ng/mL | 4310 ng/mL | 1740 ng/mL | 1940 ng/mL | 0.026 | 44.9 ng/g | CS(=O)(=O)CCNCc1ccc(-c2ccc3ncnc(Nc4ccc(OCc5cccc(F)c5)c(Cl)c4)c3c2)o1 [Lapatanib, lapatinib, reference compound] | 0 | 1 | 
5 |  |  |  |  |  |  |  |  |  |  |  |  | Cc1cc(Nc2ncnc3ccc(NC4=NC(C)(C)CO4)cc23)ccc1Oc1ccn2ncnc2c1 [REF] |  |  | Hygroscopicity (% wt change at 80% RH) [5]: <1% wt change at 80% RH
